Source: publication PMC6179046, “Discovery of novel 1,3-diaryltriazene sulfonamides as carbonic anhydrase I, II, VII, and IX inhibitors” (Journal of Enzyme Inhibition and Medicinal Chemistry, 2018)

Experiments:
Assay in all cases: stopped-flow CO2 hydrase assay
Format in all cases: biochemical
hCA VII = target: T1, hCA VII (Homo sapiens, UniProt P43166)
T1 construct: gene CA7; recombinant, obtained as reported earlier; cytosolic isoform
Excerpt: stopped-flow CO2 hydrase assay on hCA VII

hCA II = target: T2, hCA II (Homo sapiens, UniProt P00918)
T2 construct: gene CA2; recombinant, obtained as reported earlier; cytosolic isoform
Excerpt: stopped-flow CO2 hydrase assay on hCA II

hCA I = target: T3, hCA I (Homo sapiens, UniProt P00915)
T3 construct: gene CA1; recombinant, obtained as reported earlier; cytosolic isoform
Excerpt: stopped-flow CO2 hydrase assay on hCA I

hCA IX = target: T4, hCA IX (Homo sapiens, UniProt Q16790)
T4 construct: gene CA9; recombinant, obtained as reported earlier
Excerpt: stopped-flow CO2 hydrase assay on hCA IX

T3 sequence (P00915 2-261): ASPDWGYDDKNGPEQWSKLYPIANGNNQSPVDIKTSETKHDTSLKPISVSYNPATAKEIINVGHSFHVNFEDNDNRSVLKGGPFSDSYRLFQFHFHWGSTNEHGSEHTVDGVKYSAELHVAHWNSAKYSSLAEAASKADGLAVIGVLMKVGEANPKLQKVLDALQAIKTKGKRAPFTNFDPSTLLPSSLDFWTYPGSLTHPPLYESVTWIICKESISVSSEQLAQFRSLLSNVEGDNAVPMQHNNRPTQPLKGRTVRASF
T1 sequence (P43166 whole entry, canonical isoform): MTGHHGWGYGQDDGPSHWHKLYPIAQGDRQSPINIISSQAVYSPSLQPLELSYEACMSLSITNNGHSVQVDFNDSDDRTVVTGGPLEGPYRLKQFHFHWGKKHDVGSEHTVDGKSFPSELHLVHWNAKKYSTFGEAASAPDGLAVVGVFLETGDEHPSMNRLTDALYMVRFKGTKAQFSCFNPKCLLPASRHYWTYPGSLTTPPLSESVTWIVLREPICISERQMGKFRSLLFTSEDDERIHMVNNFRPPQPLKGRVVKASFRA

SMILES	Ki (hCA VII)	Ki (hCA II)	Ki (hCA I)	Ki (hCA IX)
Cc1cc(C)cc(NN=Nc2cccc(S(N)(=O)=O)c2)c1 [4f, 3–(3-(3,5-dimethylphenyl)triaz-1-en-1-yl)benzenesulfonamide]	15.6 ± 0.9 nM	4.3 ± 0.2 nM	277 ± 18 nM	50.8 ± 3.6 nM
COc1ccc(/N=N/Nc2cccc(S(N)(=O)=O)c2)cc1OC [4g, 3–(3-(3,4-dimethoxyphenyl)triaz-1-en-1-yl)benzenesulfonamide]	2560 ± 129 nM	6460 ± 310 nM	3850 ± 179 nM	84.9 ± 4.5 nM
NS(=O)(=O)c1cccc(N/N=N/c2ccc(C(=O)O)cc2)c1 [4b, 4–(3-(3-sulfamoylphenyl)triaz-2-en-1-yl) benzoic acide]	967 ± 54 nM	68.7 ± 5.1 nM	92.3 ± 7.1 nM	835 ± 47 nM
CCCCOc1ccc(NN=Nc2cccc(S(N)(=O)=O)c2)cc1 [4d, 3–(3-(4-butoxyphenyl)triaz-1-en-1-yl) benzenesulfonamide]	5870 ± 314 nM	519 ± 39 nM	618 ± 40 nM	7430 ± 216 nM

Results, then the compound that gave them:

Ki (hCA VII)	Ki (hCA II)	Ki (hCA I)	Ki (hCA IX)	SMILES
7830 ± 418 nM	9190 ± 504 nM	8370 ± 601 nM	9270 ± 451 nM	NS(=O)(=O)c1cccc(N=NNc2ccc(Cl)c(Cl)c2)c1 [4h, 3–(3-(3,4-dichlorophenyl)triaz-1-en-1-yl)benzenesulfonamide]
5760 ± 324 nM	877 ± 62 nM	416 ± 32 nM	7230 ± 159 nM	COc1ccc(/N=N/Nc2cccc(S(N)(=O)=O)c2)cc1 [4e, 3–(3-(4-methoxyphenyl)triaz-1-en-1-yl) benzenesulfonamide]
7900 ± 456 nM	605 ± 34 nM	501 ± 31 nM	8960 ± 348 nM	N#Cc1ccc(NN=Nc2cccc(S(N)(=O)=O)c2)cc1 [4c, 3–(3-(4-cyanophenyl)triaz-1-en-1-yl) benzenesulfonamide]
9480 ± 348 nM	858 ± 43 nM	365 ± 15 nM	8050 ± 126 nM	NS(=O)(=O)c1cccc(/N=N/Nc2ccc(F)cc2)c1 [4a, 3–(3-(4-fluorophenyl)triaz-1-en-1-yl) benzenesulfonamide]
